# Like-named read-outs stand apart in the source and are kept apart here.
# T1: bacterial NAD synthetase enzyme (Bacillus subtilis, UniProt P08164)
# T1 sequence (P08164 2-272 limits assumed): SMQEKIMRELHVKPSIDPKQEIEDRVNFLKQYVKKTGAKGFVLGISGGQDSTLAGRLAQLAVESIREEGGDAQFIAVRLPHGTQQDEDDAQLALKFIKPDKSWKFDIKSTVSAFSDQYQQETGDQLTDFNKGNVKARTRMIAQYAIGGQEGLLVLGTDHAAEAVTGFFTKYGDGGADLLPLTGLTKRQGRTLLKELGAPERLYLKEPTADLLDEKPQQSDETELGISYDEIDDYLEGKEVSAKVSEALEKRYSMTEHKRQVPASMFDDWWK
# B1: bacterial NAD synthetase enzyme (Bacillus subtilis subsp. subtilis str. 168) (protein)
# chain: T1 sequence (P08164 2-272 limits assumed)
# Experiments:
# [1] = tested on: Staphylococcus epidermitis; experiment: Dose response of bacterial growth inhibition, MIC85; conditions: for MIC: Staphylococcus, read-out: MIC85; for MIC85: minimum inhibitory concentration to achieve 85% inhibition, S. epidermitis
# B. subtilis = experiment: as above; conditions: Bacillus subtilis, read-out: MIC85
# [2] = tested on: Staphylococcus epidermitis; experiment: Bacterial growth inhibition screen in LB media (absorbance 595 nm), percent inhibition; conditions: for inhibition of growth at 100 µM / inhibition of growth at 10 µM: Staphylococcus, read-out: % Inhibition, S. epidermitis; for inhibition of growth at 100 µM: concentration screened 100 uM; for inhibition of growth at 10 µM / % Inhibition: concentration screened 10 uM; for % Inhibition: S. epidermitis
# [3] = molecular target: T1, bacterial NAD synthetase enzyme; experiment: biochemical; assay type: biochemical; conditions: for Km: 0.2 mL Assay (microtiter plate), substrate
# [4] = tested on: K562 human myeloid cell line; experiment: In vitro toxicity in human cells, propidium iodide flow cytometry, minimum toxic concentration
# Protocol: The final concentration of DMSO was less than 5%, and a DMSO control was included. The mixtures were incubated at doubling dilutions (approximately 1000 μM-10 μM range) of inhibitor for 15 hours at 37° C. At this time propidium iodide was added (1 μg/mL) and the mixture incubated at 30 min. at 4° C. The cells were washed once with medium, centrifuged, and resuspended in 2% bovine serum albumin/phosphate-buffered saline. The cell suspension was then run through a FAC Saliber flow cytometer and approximately 5000 cells were counted. The proportion of dead (stained) cells was determined, and the percent of live cells was expressed as % controls.
# [5] = molecular target: T1, bacterial NAD synthetase enzyme; conditions: 2 mL Assay (cuvette); substrate; double reciprocal plots
# [6] = substrate: Nc1ncnc2c1ncn2[C@@H]1O[C@H](COP(=O)(O)OP(=O)(O)OP(=O)(O)O)[C@@H](O)[C@H]1O; experiment: purified protein, by the assay type; conditions: substrate, pH 8.5
# [7] = K562 human myeloid cells, 15 hours at 37° C., propidium iodide
# [8] = compound at 0.2 mM (Table 312A)
# [9] = lead compounds (Table 318A), read-out: IC 50
# [10] = other: 2 mL Assay (cuvette), double reciprocal plots
molecule,measurement,setting,value
COC(=O)c1cc2cc(OCc3ccccc3)ccc2n1CCCCCCCCC[n+]1ccccc1 [Compound 230],MIC,[1],3 µM
same,MIC,B. subtilis,10 µM
same,inhibition of growth at 100 µM,[2],95.5%
same,inhibition at 100 µM,[3],93.1%
COC(=O)C=Cc1cn(CCCCCCCCC[n+]2cccc(C(=O)OC)c2)c2ccccc12 [Compound 270],Minimum Toxic Dose,"[4]; human, 15 h",200 µM
same,MIC,[1],10 µM
same,inhibition of growth at 10 µM,[2],97.5%
same,IC50,[3],60 µM
O=C(O)C=Cc1cn(CCCCCCCCC[n+]2cccc(C(=O)[O-])c2)c2ccccc12 [Compound 274],Minimum Toxic Dose,[4]; [7],300 µM
Fc1cc(F)c2[nH]c(CCCC[n+]3cccc4ccccc43)cc2c1 [Compound 409],Minimum Toxic Dose,[4]; [7],200 µM
same,% Inhibition,[2],2.44%
same,% Inhibition,[3]; [8],19.02%
c1ccc(C(c2ccccc2)(c2ccccc2)c2ccc3[nH]c(CCC[n+]4ccc5ccccc5c4)cc3c2)cc1 [Compound 552],MIC85,[1],30 µM
same,% Inhibition,[2],50.00%
same,% Inhibition,[3]; compound at 0.1 mM (Table 314),15.24%
c1ccc(C(c2ccccc2)(c2ccccc2)c2ccc3[nH]c(CCCC[n+]4ccc5ccccc5c4)cc3c2)cc1 [Compound 553],MIC85,[1],10 µM
same,% Inhibition,[2],94.92%
same,% Inhibition,[3]; compound at 0.1 mM (Table 314),49.49%
COc1ccc2c(ccn2CCCCCCCOC(=O)Cc2ccc([N+](C)(C)C)cc2)c1 [Compound 743],MIC85,[1],10 µM
same,% Inhibition,[2],97.67%
same,% Inhibition,[3]; compound at 0.1 mM (Table 314),94.10%
COc1ccc2c(ccn2CCCCCCCCOC(=O)Cc2ccc([N+](C)(C)C)cc2)c1 [Compound 744],MIC85,[1],30 µM
same,% Inhibition,[2],97.74%
same,% Inhibition,[3]; [8],95.85%
C[N+](C)(C)c1ccc(CC(=O)OCCCCn2ccc3cc(OCc4ccccc4)ccc32)cc1 [Compound 745],MIC,[1],30 µM
same,inhibition of growth at 10 µM,[2],95.1%
same,IC50,[3],85 µM
same,inhibition at 200 µM,[3],85.4%
C[N+](C)(C)c1ccc(CC(=O)OCCCCCn2ccc3cc(OCc4ccccc4)ccc32)cc1 [Compound 746],MIC,[1],10 µM
same,inhibition of growth at 10 µM,[2],96.8%
same,IC50,[3],50 µM
same,inhibition at 100 µM,[3],91.3%
C[N+](C)(C)c1ccc(CC(=O)OCCCCCCn2ccc3cc(OCc4ccccc4)ccc32)cc1 [Compound 747],MIC,[1],10 µM
same,inhibition of growth at 10 µM,[2],97.9%
same,IC50,[3],70 µM
same,inhibition at 100 µM,[3],97.8%
C[N+](C)(C)c1ccc(CC(=O)OCCCCCCCn2ccc3cc(OCc4ccccc4)ccc32)cc1 [Compound 748],MIC,[1],10 µM
same,inhibition of growth at 100 µM,[2],98.4%
same,inhibition at 100 µM,[3],98.4%
same,IC50,[3]; [9],30 µM
C[N+](C)(C)c1ccc(CC(=O)OCCCCCCCCn2ccc3cc(OCc4ccccc4)ccc32)cc1 [Compound 749],MIC,[1],10 µM
same,MIC,B. subtilis,3 µM
same,inhibition of growth at 100 µM,[2],98.7%
same,IC50,[3],25 µM
same,inhibition at 100 µM,[3],98.2%
C[n+]1cccc(C(=O)OCCCCCn2ccc3cc(OCc4ccccc4)ccc32)c1 [Compound 766],MIC,[1],30 µM
same,inhibition of growth at 10 µM,[2],90.5%
same,IC50,[3],65 µM
same,inhibition at 100 µM,[3],91.2%
C[n+]1cccc(C(=O)OCCCCCCn2ccc3cc(OCc4ccccc4)ccc32)c1 [Compound 767],MIC,[1],10 µM
same,inhibition of growth at 100 µM,[2],91.8%
same,IC50,[3],60 µM
same,inhibition at 100 µM,[3],96%
C[n+]1cccc(C(=O)OCCCCCCCn2ccc3cc(OCc4ccccc4)ccc32)c1 [Compound 768],MIC,[1],10 µM
same,inhibition of growth at 100 µM,[2],96.1%
same,IC50,[3],30 µM
same,inhibition at 100 µM,[3],98.6%
C[n+]1cccc(C(=O)OCCCCCCCCn2ccc3cc(OCc4ccccc4)ccc32)c1 [Compound 769],MIC,[1],10 µM
same,MIC,B. subtilis,3 µM
same,inhibition of growth at 100 µM,[2],95.9%
same,inhibition at 100 µM,[3],98.3%
same,IC50,[3]; [9],20 µM
O=C(OCCCCCn1ccc2cc([N+](=O)[O-])ccc21)c1cnc2ccccc2c1 [Compound 831],MIC85,[1],30 µM
same,% Inhibition,[2],84.68%
same,% Inhibition,[3]; compound at 0.1 mM (Table 314),26.21%
C[n+]1cc(C(=O)OCCCCCCn2ccc3cc([N+](=O)[O-])ccc32)cc2ccccc21 [Compound 832],MIC,[1],30 µM
same,inhibition of growth at 10 µM,[2],94.7%
same,IC50,[3],90 µM
same,inhibition at 100 µM,[3],78.6%
CN(C)c1ccc(CC(=O)OCCCCCCCCCn2ccc3cc([N+](=O)[O-])ccc32)cc1 [Compound 853],MIC85,[1],30 µM
same,% Inhibition,[2],98.58%
same,% Inhibition,[3]; compound at 0.1 mM (Table 314),73.46%
same,IC50,[3]; [9],45 µM
CC(=O)c1ccc2[nH]c(CCCCCCCCOC(=O)Cc3ccc[n+](C)c3)cc2c1 [Compound 939],Minimum Toxic Dose,"[4]; human, 15 h",500 µM
same,IC50,[3],25 µM
same,inhibition at 250 µM,[3],97.8%
COC(=O)c1cc2ccccc2n1CCCCCCOC(=O)c1cccnc1 [Compound 947],Minimum Toxic Dose,[4]; [7],200 µM
COC(=O)c1cc2ccccc2n1CCCCCCCOC(=O)c1cccnc1 [Compound 948],Minimum Toxic Dose,[4]; [7],200 µM
same,% Inhibition,[3]; compound at 0.05 mM,2.52%
COC(=O)c1cc2ccccc2n1CCCCCCCCOC(=O)c1cccnc1 [Compound 949],Minimum Toxic Dose,[4]; [7],200 µM
COC(=O)c1cc2cc(OCc3ccccc3)ccc2n1CCCCCCOC(=O)c1cccnc1 [Compound 951],Minimum Toxic Dose,[4]; [7],500 µM
COC(=O)c1cc2cc(OCc3ccccc3)ccc2n1CCCCCCCCOC(=O)c1cccnc1 [Compound 953],Minimum Toxic Dose,[4]; [7],100 µM
COC(=O)c1cc2cc(OCc3ccccc3)ccc2n1CCCCCCCOC(=O)c1ccc[n+](C)c1 [Compound 976],MIC,B. subtilis,10 µM
same,IC50,[3],20 µM
same,inhibition at 100 µM,[3],71%
COC(=O)c1cc2cc(OCc3ccccc3)ccc2n1CCCCCCCCOC(=O)c1ccc[n+](C)c1 [Compound 977],MIC,B. subtilis,10 µM
same,IC50,[3],10 µM
same,inhibition at 100 µM,[3],87.6%
COC(=O)c1cc2ccccc2n1CCCCCCCOC(=O)Cc1ccc([N+](C)(C)C)cc1 [Compound 984],MIC,B. subtilis,30 µM
same,IC50,[3],20 µM
same,inhibition at 50 µM,[3],87.5%
COC(=O)c1cc2ccccc2n1CCCCCCCCOC(=O)Cc1ccc([N+](C)(C)C)cc1 [Compound 985],MIC,B. subtilis,10 µM
same,IC50,[3],15 µM
same,inhibition at 50 µM,[3],92.1%
COC(=O)c1cc2ccccc2n1CCCCCCCCCOC(=O)Cc1ccc([N+](C)(C)C)cc1 [Compound 986],MIC,B. subtilis,10 µM
same,inhibition at 50 µM,[3],30.8%
same,IC50,[3]; [9],10 µM
COC(=O)c1cc2cc(OCc3ccccc3)ccc2n1CCCCCCCOC(=O)Cc1ccc([N+](C)(C)C)cc1 [Compound 988],MIC,B. subtilis,10 µM
same,inhibition at 100 µM,[3],84.3%
COC(=O)c1cc2cc(OCc3ccccc3)ccc2n1CCCCCCCCCOC(=O)Cc1ccc([N+](C)(C)C)cc1 [Compound 990],MIC,B. subtilis,10 µM
same,IC50,[3],20 µM
same,inhibition at 200 µM,[3],92.2%
"[Mg+2] [Mg^+2, magnesium]",Km,[3],2900 µM
same,Km,[5],2600 µM
same,Vmax,[5],120 nM/s
"N [NH3, ammonia]",Km,[5],2880 µM
same,Vmax,[5],137 nM/s
"Nc1ncnc2c1ncn2[C@@H]1O[C@H](COP(=O)(O)OP(=O)(O)OC[C@H]2O[C@@H]([n+]3cccc(C(=O)O)c3)[C@H](O)[C@@H]2O)[C@@H](O)[C@H]1O [NaAD, nictonic acid dinucleotide, reference compound]",Km,[3],76 µM
same,Km,[5],75 µM
same,Vmax,[5],286 nM/s
B1,Km,[6]; other: 0.2 mL Assay (microtiter plate),152 µM
same,Km,[6]; [10],120 µM
same,Vmax,[6]; [10],436 nM/s

# Reference: US6727237B2, “Inhibitors of bacterial NAD synthetase” (priority 1998, dated 2004)
